According to PubChem BioAssay AID743334 (Broad Institute, 2014):
Active and inactive are the calls of the source.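 Rule for the calls: active = curve reaches 40% rise within the top valid dose, in every run; inconclusive = runs give conflicting calls; inactive = opposite-direction activity, or every run inactive.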

Key:
[1] = system: C2C12 myotubes ATP, CellTiter-Glo luminescence, 48 h; experiment: statin-free myotube ATP level counter-assay – cell-based, no simvastatin, luminescence, dry powder, counter-screen for statin myotoxicity suppressor project, dose response (AID 743334)
[2] = as above; settings: C2C12 myotubes ATP, CellTiter-Glo luminescence, 48 h; for max activity: stronger effect = higher value

Row | SMILES | AC40 [1] | max activity [2] | other results
1 | C[C@H]1CN([C@@H](C)CO)C(=O)Cc2cc(NC(=O)CCCCCC(=O)Nc3ccccc3N)ccc2O[C@H]1CN(C)Cc1ccccc1 | 18 µM (inactive) |  | 
2 | C[C@@H]1CN([C@@H](C)CO)C(=O)c2cc(NC(=O)Nc3cccc4ccccc34)ccc2O[C@@H]1CN(C)Cc1ccc(C(=O)Nc2ccccc2N)cc1 | > 21 µM (inactive) |  | 
3 | C[C@H]1CN([C@@H](C)CO)C(=O)c2cc(C#Cc3ccncc3)cnc2O[C@@H]1CN(C)CC1CCCC1 | > 19.5 µM (inactive) |  | 
4 | C[C@H](CO)N1C[C@H](C)[C@@H](CN(C)Cc2ccc(Cl)c(Cl)c2)Oc2ccc(NC(=O)C3CC3)cc2CC1=O | > 19.5 µM (inactive) |  | 
5 | C[C@H](CO)N1C[C@H](C)[C@H](CN(C)CC2CCCCC2)Oc2ccc(NC(=O)CCCCCC(=O)Nc3ccccc3N)cc2CC1=O | > 19.5 µM (inactive) |  | 
6 | COc1ccc(S(=O)(=O)Nc2ccc3c(c2)CC(=O)N([C@H](C)CO)C[C@H](C)[C@@H](CN(C)Cc2ccc(Cl)c(Cl)c2)O3)cc1 | > 19.5 µM (inactive) |  | 
7 | C[C@@H]1CN([C@H](C)CO)C(=O)c2cc(NC(=O)Cc3cn(C)c4ccccc34)ccc2O[C@@H]1CN(C)Cc1ccc(C(=O)Nc2ccccc2N)cc1 |  | -0.539% (inactive) | 
8 | C[C@@H]1CN([C@H](C)CO)C(=O)c2cccc(NC(=O)c3nc4ccccc4s3)c2O[C@@H]1CN(C)Cc1ccc(C(=O)Nc2ccccc2N)cc1 |  | -20.8% (inactive) | 
9 | N#C[C@H]1[C@H](c2ccc(-c3cccc(F)c3)cc2)[C@H](CO)N1C(=O)NC1CCCC1 |  | -7.45% (inactive) | 
10 | N#C[C@@H]1[C@@H](c2ccc(-c3cccc(F)c3)cc2)[C@H](CO)N1C(=O)c1cccnc1 |  | 6.17% (inactive) | 
11 | C[C@H]1CN([C@@H](C)CO)S(=O)(=O)c2ccc(C#Cc3ccc(F)cc3)cc2O[C@@H]1CN(C)S(=O)(=O)c1cn(C)cn1 |  |  | ATP level change, positive = increase ([2]; at 19.5 µM (top of the series)): 6.04% (inactive)
12 | C[C@H](CO)N1C[C@H](C)[C@H](CN(C)Cc2ccc(C(=O)Nc3ccccc3N)cc2)Oc2ccc(NC(=O)Nc3ccc(F)cc3)cc2CC1=O |  | -33.9% (inactive) | 
13 | C[C@@H]1CN([C@@H](C)CO)C(=O)c2cc(NS(=O)(=O)c3ccc(Cl)cc3)ccc2O[C@H]1CN(C)C(=O)Nc1cccc2ccccc12 |  |  | ATP level change, positive = increase ([2]; at 19.5 µM (top of the series)): 6.56% (inactive)
14 | C[C@H]1CN([C@@H](C)CO)C(=O)c2cc(NC(=O)Cc3cn(C)c4ccccc34)ccc2O[C@H]1CN(C)Cc1ccc(C(=O)Nc2ccccc2N)cc1 |  | 5.76% (inactive) | 
15 | C[C@@H]1CN([C@H](C)CO)C(=O)Cc2cc(NS(=O)(=O)c3cn(C)cn3)ccc2O[C@@H]1CN(C)Cc1ccc(Cl)c(Cl)c1 |  |  | ATP level change, positive = increase ([2]; at 19.5 µM (top of the series)): 9.79% (inactive)
16 | C[C@@H]1CN([C@H](C)CO)C(=O)Cc2cc(NC(=O)CCCCCC(=O)Nc3ccccc3N)ccc2O[C@H]1CN(C)Cc1ccc(Oc2ccccc2)cc1 |  | -0.786% (inactive) | 
17 | C[C@H](CO)N1C[C@H](C)[C@H](CN(C)Cc2ccc3c(c2)OCO3)Oc2ccc(NC(=O)CCCCCC(=O)Nc3ccccc3N)cc2CC1=O |  |  | ATP level change, positive = increase ([2]; at 18 µM (top of the series)): 12% (inactive)
18 | CCCNC(=O)N1[C@H](CO)[C@H](c2ccccc2)[C@@H]1C#N |  | -8.33% (inactive) | 
19 | C[C@H]1CN([C@@H](C)CO)C(=O)c2cc(NC(=O)Nc3cccc4ccccc34)ccc2O[C@H]1CN(C)Cc1ccc(C(=O)Nc2ccccc2N)cc1 | > 19.5 µM (inactive) |  | 
20 | C[C@@H]1CN([C@H](C)CO)C(=O)c2cccc(NC(=O)Nc3ccc4c(c3)OCO4)c2O[C@H]1CN(C)Cc1ccc(C(=O)Nc2ccccc2N)cc1 |  | -9.22% (inactive) | 
21 | N#C[C@@H]1[C@@H](c2ccc(-c3cccc(F)c3)cc2)[C@H](CO)N1C(=O)NC1CCCC1 | > 21 µM (inactive) |  | 
22 | COc1ccc(CN(C)C[C@H]2Oc3ccc(NS(=O)(=O)c4ccc(Cl)cc4)cc3CC(=O)N([C@@H](C)CO)C[C@@H]2C)cc1 | > 19.5 µM (inactive) |  | 
